Test results taken from patent publication EP4620954A1, “CDK2 INHIBITOR, PREPARATION METHOD THEREFOR, AND USE THEREOF” (Shandong Luye Pharmaceutical Co., Ltd., priority 2022, dated 2024).
Like-named read-outs stand apart in the source and are kept apart here.

Tests used:
HCT116 cells = experiment: Antagonistic effect assay against HCT116 cell proliferation (CellTitle-Glo); format: cell-based; conditions: Homo sapiens, HCT-116, 72 h treatment, 0.01-10.00 µM, read-out: Antiproliferative IC50
Procedure: Frozen HCT116 cells were rapidly transferred from liquid nitrogen to a 37 °C water bath and rapidly shaken for thawing. The cell suspension was transferred to a 15 mL centrifuge tube and centrifuged at 1500 rpm for 5 min, and the supernatant was discarded. The cell pellet was resuspended in RPMI-1640 complete medium (containing 10% fetal bovine serum and 1% penicillin/streptomycin) and transferred to a cell culture dish containing 10 mL of medium. The cells were cultured in an incubator at 37 °C/5% CO2. The cells were passaged after adhesion to the wall.
HCT116 cells in the logarithmic growth phase and in good condition were taken, digested with a trypsin solution, resuspended in a certain amount of RPMI-1640 complete medium to form a single-cell suspension, counted on a cell counting plate, and seeded into a 96-well white plate at a density of 800 cells/well. The plate was left to stand for 5 min and then incubated in an incubator at 37 °C/5% CO2 overnight. The next day, the cells were treated with the compound at different concentrations, and the control group was treated with DMSO at the corresponding concentration. The compound, dissolved in DMSO, was diluted in RPMI-1640 complete medium at a ratio of 1:1000 to obtain final concentrations of 10.00 µM, 3.33 µM, 1.11 µM, 0.37 µM, 0.12 µM, 0.04 µM, and 0.01 µM. Each group was set up with 3 replicate wells, and 100 µL of the treatment solution was added to each well. The plate was incubated in an incubator at 37 °C/5% CO2 for 72 h.
After 72 h of treatment, the CellTitle-Glo assay was performed. 100 µL of CellTitle-Glo solution was added to each well of the control and treatment groups. The plate was mixed on an oscillator for 2 min to induce cell lysis. The 96-well plate was incubated at room temperature for 10 min to stabilize the luminescence signal value. The luminescence signal was measured using a microplate reader. The DMSO-treated cell group was used as the control group, and 50% inhibitory concentration (IC50) was calculated according to the median effect equation as follows: [formula]
The IC50 values of the compounds were calculated using GraphPad Prism nonlinear fitting equation. Table 2. Results for the inhibitory effect of the compounds of the present disclosure on HCT116 cell proliferation

CDK1/Cyclin B = target: T1, CDK1/Cyclin B (Homo sapiens, UniProt P06493); experiment: CDK1 kinase activity assay (TR-FRET); format: biochemical
T1 construct: purchased Invitrogen PR4768C
Procedure: (§1) Compounds were dissolved in DMSO and serially diluted 3-fold to generate 11 concentrations. 100 nL of each compound was added to 384-well plates, followed by the addition of 5 µL of 2× CDK2/Cyclin E1 or CDK1/Cyclin B enzyme mixed solution. 5 µL of buffer (50 mM Hepes (pH 7.5), 10 mM MgCl2, 1 mM EDTA, 0.01% Brij-35, 2 mM DTT (prepared freshly)) was added to the complete inhibition control wells. The plates were centrifuged at 1000 rpm for 30 s and incubated at 23 °C for 15 min. Then, 5 µL of 2× MLight-MBP peptide (containing 10 µM ATP) was added to each well of each assay plate. The plates were centrifuged again at 1000 rpm for 30 s and incubated at 23 °C for 90 min.
(§2) After the incubation was completed, the reaction was stopped with a detection buffer containing 15 mM EDTA and 2 nM Eu-anti-P-MBP antibody. After centrifugation at 1000 rpm for about 1 min, the plates were incubated at 23 °C for 60 min and read on Perkin Elmer Envision.
(§3) The IC50 values of the compounds were calculated using GraphPad Prism nonlinear fitting equation. Table 1. Kinase activity assay

CDK2/Cyclin E1 = target: T2, CDK2/Cyclin E1 (Homo sapiens, UniProt P24941); experiment: CDK2 kinase antagonistic activity assay (TR-FRET); format: biochemical; conditions: TR-FRET; peptide mix containing 10 µM ATP; 90 min at 23 °C; read-out: CDK2/Cyclin E1 IC50
T2 construct: purchased Invitrogen PV6296
Procedure: as §1
as §2, with “Envision. The TR-FRET ratio (value at 665 nm/value at 615 nm) was automatically calculated by Envision.” for “Envision.”
as §3

[1] = In-vitro liver microsomal stability, dog; format: in vitro ADME; conditions: dog liver microsomes 0.5 mg/mL, 1 µM, NADPH 1 mM, 37 °C
Procedure: (§4) Method: The metabolic stability of test substances was evaluated by using human, dog, and SD rat liver microsomes. The test substances were incubated with liver microsomes from different species and NADPH in a water bath at 37 °C. In the incubation system, the final concentration of the test or control sample was 1 µM, the final concentration of liver microsomes was 0.5 mg/mL, the final concentration of NADPH was 1 mM, and the final concentration of MgCl2 was 3 mM. At designated time points (5 min, 10 min, 20 min, 30 min, and 60 min), the reaction was stopped by adding a cold acetonitrile solution containing tolbutamide (at a concentration of 200 ng/mL) as an internal standard. For the 0-min sample, the stop solution was added before the addition of the NADPH working solution. Testosterone and dextromethorphan were used as positive control samples in the same conditions to assess the stability and reliability of the system. After sample pretreatment, semiquantitative analysis was performed using the LC-MS/MS method. The retention times of the analytes and internal standard, the acquisition of chromatograms and the integration of chromatograms were processed using software Analyst (AB Sciex, Framingham, Massachusetts, USA). The remaining percentage of the test samples after 60 min of incubation was calculated, and the test results are shown in Table 3. Table 3. Test data for the compounds of the present disclosure in human, dog, and rat liver microsomes

[2] = In-vitro liver microsomal stability, rat; format: in vitro ADME; conditions: SD rat liver microsomes 0.5 mg/mL, 1 µM, NADPH 1 mM, 37 °C
Procedure: as §4

[3] = In-vitro liver microsomal stability, human; format: in vitro ADME; conditions: human liver microsomes 0.5 mg/mL, 1 µM, NADPH 1 mM, 37 °C
Procedure: as §4

P-glycoprotein (P-gp) = experiment: Permeability and transporter substrate evaluation, Caco-2 monolayer; format: in vitro ADME; conditions: human, Caco-2, Table 4 experimental system, Caco-2, 2.00 µM
Procedure: (§5) Cell: Caco-2 cells Instrument: water purification equipment, ELGA LabWate; biosafety cabinet, Nuaire; thermostatic CO2 incubator, Thermo; microplate reader, PerkinElmer; LC-MS/MS, AB SCIEX. Method: The purpose of this study was to determine the two-way permeability of the compounds and evaluate whether they are effluxed and transported by P-glycoprotein (P-gp) using a Caco-2 monolayer cell model. In the experiment, Caco-2 cells were seeded into a 96-well cell plate and cultured for 24 consecutive days for the transport experiment. The compounds were administered bidirectionally at a concentration of 2.00 µM, with or without verapamil. After 120 min of incubation, the samples at the apical end A and the basal end B were collected. The content of the test samples in each sample was measured using the liquid chromatography-tandem mass spectrometry (LC-MS/MS) method. The apparent permeability coefficient and the efflux rate were calculated. Two experimental systems were used successively in this part, with the reference compound (PF-07104091) included. Table 4. Permeability test results

[4] = as above; format: in vitro ADME; conditions: human, Caco-2, Table 4 experimental system, Caco-2, 2.00 µM
Procedure: as §5

[5] = TR-FRET, peptide mix containing 10 µM ATP, 90 min at 23 °C, read-out: CDK1/Cyclin B1 IC50

T1 sequence (P06493 whole entry): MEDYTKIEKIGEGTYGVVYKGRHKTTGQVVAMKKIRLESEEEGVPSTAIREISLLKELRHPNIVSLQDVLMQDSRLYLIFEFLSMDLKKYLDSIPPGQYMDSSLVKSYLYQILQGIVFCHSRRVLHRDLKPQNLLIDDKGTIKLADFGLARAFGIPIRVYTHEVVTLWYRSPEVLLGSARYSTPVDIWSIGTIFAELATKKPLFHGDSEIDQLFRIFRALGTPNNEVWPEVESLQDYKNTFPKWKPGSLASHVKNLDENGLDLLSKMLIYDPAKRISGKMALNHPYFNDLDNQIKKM
T1 sequence (P14635 whole entry partner): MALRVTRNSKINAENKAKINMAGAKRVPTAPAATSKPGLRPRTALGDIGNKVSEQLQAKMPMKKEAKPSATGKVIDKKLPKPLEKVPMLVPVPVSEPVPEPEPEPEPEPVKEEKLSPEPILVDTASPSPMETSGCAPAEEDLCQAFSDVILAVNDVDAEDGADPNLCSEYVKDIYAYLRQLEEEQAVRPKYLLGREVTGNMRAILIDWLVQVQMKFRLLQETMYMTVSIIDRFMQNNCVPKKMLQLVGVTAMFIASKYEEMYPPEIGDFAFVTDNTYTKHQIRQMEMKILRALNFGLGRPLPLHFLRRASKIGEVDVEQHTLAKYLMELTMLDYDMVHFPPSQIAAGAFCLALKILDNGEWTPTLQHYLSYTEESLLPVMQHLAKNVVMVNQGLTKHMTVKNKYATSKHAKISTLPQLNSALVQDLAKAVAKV

Row | Structure (SMILES) | IC50 (HCT116 cells) [nM] | IC50 (CDK1/Cyclin B; [5]) [nM] | IC50 (CDK2/Cyclin E1) [nM] | Remaining amount% at 60 min Dog [1] [%] | Remaining amount% at 60 min Rat [2] [%] | Remaining amount% at 60 min Human [3] [%] | efflux ratio at 120 min, 2 µM (P-glycoprotein (P-gp)) | Papp A→B at 120 min, 2 µM [4] [×10⁻⁶ cm/s] | Papp B→A at 120 min, 2 µM [4] [×10⁻⁶ cm/s] | IC50 (CDK1/Cyclin B) [nM]
1 | Cn1nc(CS(C)(=O)=O)cc1C(=O)Nc1cc([C@@H]2C[C@H](OC(=O)N3CCC3(C)C)CO2)[nH]n1 [Compound 27] | 3010 | 54.2 | 9.32 | 96.7 | 81.2 | 91.3 | – | – | – | –
2 | COCc1cc(C(=O)Nc2cc([C@H]3CC[C@@H](OC(=O)NC(C)C#N)C3)[nH]n2)n(C)n1 (stereo partly drawn) [Compound 1] | 3660 | 78.2 | 2.24 | 92.0 | 85.0 | 80.3 | > 40.2 | < 0.48 | 19.3 | –
3 | COCc1cc(C(=O)Nc2cc([C@H]3CC[C@@H](OC(=O)N(C)C4CCC(=C(F)F)CC4)C3)[nH]n2)n(C)n1 (stereo partly drawn) [Compound 2] | 2470 | 42.5 | 5.15 | 12.7 | 3.87 | 5.38 | 199 | 0.218 | 43.4 | –
4 | C#CC(C)NC(=O)O[C@@H]1CC[C@H](c2cc(NC(=O)c3cc(COC)nn3C)n[nH]2)C1 (stereo partly drawn) [Compound 4] | 2340 | 460 | 2.58 | 77.9 | 77.9 | 93.5 | 390 | 0.0791 | 30.8 | –
5 | COCc1cc(C(=O)Nc2cc([C@H]3CC[C@@H](OC(=O)NCC=C(F)F)C3)[nH]n2)n(C)n1 [Compound 3] | 2090 | 78.2 | 1.22 | 86.7 | 74.6 | 90.9 | 150 | 0.218 | 32.8 | –
6 | COCc1cc(C(=O)Nc2cc([C@H]3CC[C@@H](OC(=O)NC45CC6CC(CC(C6)C4)C5)C3)[nH]n2)n(C)n1 [Compound 6] | 2640 | – | 0.95 | 30.3 | 1.80 | 11.0 | 48.7 | 0.54 | 26.3 | 78.4
7 | CC(C)NC(=O)O[C@@H]1CC[C@H](c2cc(Nc3ccc(N4CCN(C)CC4)cc3)n[nH]2)C1 [Compound 9] | 2620 | 138 | 4.38 | 7.34 | 27.7 | 93.2 | 84.2 | 0.52 | 43.8 | –
8 | CC(C)NC(=O)O[C@@H]1CC[C@H](c2cc(NC(=O)c3cc(CS(C)(=O)=O)nn3C)n[nH]2)C1 [Compound 7] | 2250 | 90 | 0.64 | 101 | 101 | 93.2 | > 55.4 | < 0.26 | 14.4 | –
